Laboratory results as given in a melting point compilation (Tetko et al.).

melting point [°C]	SMILES
250 to 252	O=C(O)c1cc2ccc(-c3ccccc3)cc2[nH]1
259 to 261	O=C(O)Cc1csc2nccn12
36 to 38	N#Cc1cccnc1N1CCCC1
228 to 230	Nc1ccc2nc(NC(=O)CN3CCOCC3)sc2c1
190 to 192	Cc1cc(C(=O)O)nn1-c1cccc(Cl)c1
268 to 270	O=C(O)c1ccsc1C(=O)O
63 to 65	NCc1ccnc(N2CCCC2)n1
196 to 198	O=C(O)c1c[nH]cc1-c1ccc2c(c1)OCCO2
253 to 255	CCc1cc2c(=O)[nH]c(N3CCCC3)nc2s1
115 to 117	O=C(O)C1CSCN1C(=O)C1CCC1 (centres undefined)
169 to 171	O=C(O)c1ccc(S(=O)(=O)NCC2CCCO2)cc1 (centres undefined)
149 to 151	Cc1cc(N)ccc1NC(=O)c1cccc(S(C)(=O)=O)c1
182 to 184	CC(=O)Nc1[nH]c(=O)ccc1[N+](=O)[O-]
156 to 158	O=C(O)C1CCCn2ccnc21 (centres undefined)
173 to 175	O=C(O)c1nnn(-c2ccc(F)cc2)c1C1CC1
235 to 237	O=C(O)c1nn(-c2ccccc2F)cc1Br
214 to 216	O=C(O)Cc1csc(NC(=O)c2ccc(Br)o2)n1
95 to 97	CC(CC(=O)c1cccc(Br)c1)C(=O)O (centres undefined)
150 to 152	Cc1ccc(NS(=O)(=O)c2ccc(N)cc2)cc1C
73 to 75	CC(CC(=O)O)C(=O)c1ccc(Cl)cc1 (centres undefined)

melting point [°C]	SMILES
131 to 133	O=C(O)c1cn(Cc2ccccc2)nc1-c1cccs1
175 to 177	N#Cc1ccc(S(=O)(=O)N2CCC(C(=O)O)CC2)cc1
226 to 228	O=C(O)c1ccc(F)c(S(=O)(=O)NC2CC2)c1
93 to 95	CC(C)(C)OC(=O)N1CCc2ccc(N)cc2C1
146 to 148	CC(=O)N1CCN(c2ccc(CO)cc2)CC1
128 to 130	O=C(O)Cc1csc(Cc2ccccc2)n1
89 to 91	O=C(O)Cc1cc2ccccc2o1
171 to 173	NC(=O)Cc1ccc(OCC(=O)O)cc1
102 to 104	O=C(Nc1ccc(C(F)(F)F)cc1)OCC(F)(F)F
132 to 134	CS(=O)(=O)c1ccc(NN)cc1
170 to 174	O=C(O)c1ccc(Oc2ccc(F)cc2)cc1
125 to 127	COc1ccc(S(=O)(=O)Nc2cccc(CN)c2)cc1
132 to 134	CC(C)(C)C(=O)Nc1ccc(Cl)c(C(F)(F)F)c1
225 to 227	CC(C)c1cc(C(=O)O)nn1-c1ccncc1
129 to 131	O=C(O)CN(C(=O)c1ccc(Br)o1)c1ccccc1
215 to 217	O=C(O)c1cc(Cl)nc(N2CCCC2)c1
36 to 38	NCc1ccc(N2CCOCC2)c(F)c1
144 to 146	O=C(O)CCNc1ccccc1[N+](=O)[O-]
239 to 241	CC(C)(C)OC(=O)N1CCc2[nH]c(=O)c(C#N)cc2C1
140 to 142	O=C(CCl)c1ccc(NC(=O)c2ccccc2)cc1

melting point [°C]	SMILES
103 to 105	C=CCN(c1ccccc1Cl)S(=O)(=O)c1cccc(C(=O)O)c1
126 to 128	Nc1ccc2c(c1)C(=O)CCC2
214 to 216	O=C(Nc1ccc(F)cc1)Nc1cccc(O)c1
171 to 173	O=C(O)c1ccc(COc2cccc(Br)c2)o1
203 to 205	COc1ccccc1-c1nn(C)cc1C(=O)O
279 to 281	CN1CC(=O)N(CC(=O)Nc2ccccc2)C1=O
239 to 241	O=C(O)CCc1nc2ccccc2c(=O)[nH]1
141 to 145	O=C(O)c1nn(-c2ccccc2C(F)(F)F)cc1O
118 to 120	O=C(CN1C(=O)CCC1=O)c1ccccc1Cl
193 to 195	CCc1noc2ncc(C(=O)O)cc12
180 to 183	O=C(CC1SC(N2CCCC2)=NC1=O)Nc1ccc(C(=O)O)cc1 (centres undefined)
199 to 201	O=C(O)c1n[nH]ccc1=O
150 to 152	O=C(CC1(C(=O)O)CCCC1)N1CCOCC1
279 to 281	Cc1ccc(Nc2cccc(C(=O)O)c2)nn1
210 to 212	O=C(c1cc(Br)c[nH]1)N1CCCC1
259 to 261	O=C(O)COCc1nc2ccccc2c(=O)[nH]1
237 to 239	O=C(O)c1ccc(-c2ccc(F)cc2)cc1F
229 to 231	NC(=NO)c1cccc(NC(=O)C2CC2)c1

Continued, compound first:

SMILES	melting point [°C]
Clc1cc(C2CC2)nc2ncnn12	99 to 101
CCCC(C(=O)O)N(C)C (centres undefined)	179 to 181
CS(=O)c1ccc(C=O)cc1 (centres undefined)	88 to 90
NS(=O)(=O)c1cnc2c(c1)CCC2	188 to 190
Nc1cc(-c2ccccc2)nc(N)n1	153 to 155
Nc1ncc(Br)cc1F	87 to 89
Cc1cc(=O)nc2sc(N3CCNCC3)nn12	234 to 236
Cn1cc(S(=O)(=O)Cl)cc1C(=O)O	164 to 166
Cc1cc(=O)oc2cc(OCCBr)ccc12	102 to 104
O=C(O)C(c1ccccc1)n1cccn1 (centres undefined)	141 to 143
NC(=NO)c1ccc(Oc2ccc(F)cc2)nc1	194 to 196
O=S1(=O)Cc2ccc(Cl)cc2N1	149 to 151
Nc1ccnc(OCC(F)(F)F)c1	39 to 41
Nc1ccc(F)cc1-c1nc(CCOc2ccccc2)no1	122 to 124
CC(C)(C)S(=O)(=O)Cc1ccc(N)cc1	211 to 213
COC(=O)C(NC(c1ccccc1)(c1ccccc1)c1ccccc1)C(C)O (centres undefined)	115 to 117
CS(=O)(=O)OC1CCCC(S(C)(=O)=O)C1 (centres undefined)	119 to 121
NC(=S)CCN1CCOC1=O	140 to 142
CCc1cc(=O)[nH]c(-c2cccnc2)n1	151 to 153
Cn1cc(-c2ncc(C=O)s2)cn1	141 to 143
Clc1cccc(Nc2nc3ccccc3s2)c1	173 to 175
O=C(O)CN1N=C(C(F)(F)F)CC1=O	218 to 220

SMILES	melting point [°C]
O=[N+]([O-])c1cc(S(=O)(=O)Cl)c(Cl)cc1F	41 to 43
CC(C)(C)c1ccc(-c2ccc(C=O)o2)cc1	70 to 72
CC1(C)C(=O)NC(=O)N1CC#N	147 to 149
NC(=S)c1ccoc1	103 to 105
CC1(c2ccc3c(c2)OCCO3)NC(=O)NC1=O (centres undefined)	180 to 182
CC1(c2cccs2)NC(=O)NC1=O (centres undefined)	137 to 139
CC(C)c1n[nH]c(C(=O)O)c1Br	195 to 197
CNS(=O)(=O)c1c(C)noc1C	70 to 72
CC(N)c1cccc(N2CCCS2(=O)=O)c1 (centres undefined)	60 to 62
COC(=O)CS(N)(=O)=O	57 to 59
CN(C)c1ccc(C(N)=S)cc1	117 to 119
CC1C(=O)NC1c1ccccc1 (centres undefined)	92 to 94
CCN(CC)Cc1ccc(O)c2ncccc12	60 to 62
Cc1nc(NN)c2c3c(sc2n1)CCC3	182 to 184
CC(CO)CC(C)(C)N (centres undefined)	64 to 66
COC(=O)c1sc(N)nc1C	171 to 174
Nc1ccc(Oc2cccc3cccnc23)cc1	203 to 205
CC(C)(C)CCN1CCNCC1	119 to 122
CC(C)Oc1ccc(Cl)c(C(=O)O)n1	70 to 72
CCOc1ccc(/C=C/C(=O)O)cc1OC	202 to 204
Cc1cc(N)nc(C)c1Br	147 to 149
CCC(Oc1ccccc1C)C(=O)O (centres undefined)	49 to 51

SMILES	melting point [°C]
O=C(O)CCC1CCNCC1	275 to 277
Nc1cc(Cl)cc(Br)c1O	83 to 85
Brc1ccc(C2CNCCO2)cc1 (centres undefined)	53 to 55
Cc1ccc(S(=O)(=O)N(C)C)cc1N	172 to 174
N#CCOc1ccc(CBr)cc1	74 to 76
CCOc1cc(C=O)ccc1OCc1cccnc1	73 to 75
Nc1c(I)cccc1C(=O)O	172 to 174
CC(C)Cn1[nH]c(-c2ccccc2)cc1=N	99 to 101
O=C1Nc2c(ccc(Cl)c2F)C1=O	200 to 202
CC(C)C(C(=O)O)N1CCCS1(=O)=O (centres undefined)	97 to 99
O=C(NCCO)c1ccccc1C(F)(F)F	61 to 63
O=[N+]([O-])c1cc(F)cc(S(=O)(=O)Cl)c1	40 to 42
NCc1ccc(C(N)=O)nc1	146 to 148
O=S1(=O)CCNCN1	143 to 145
O=C(O)c1ncc(Cl)cc1Cl	139 to 141
Cc1cc(/C=C/C(=O)O)c(C)n1-c1nccs1	160 to 162
NC(=O)NCCc1cccs1	88 to 98
Nc1nc(-c2ccc(Cl)cc2)n[nH]1	219 to 221
N#Cc1c(F)cccc1-n1ccc(N)n1	134 to 136
CCOC(=O)c1ccc(N)c(O)c1	91 to 93
Cn1cc(CC2CC(=O)NC2=O)cn1 (centres undefined)	116 to 118
c1csc(-c2nn[nH]n2)c1	201 to 203

SMILES	melting point [°C]
CC1(c2ccc3ccccc3c2)NC(=O)NC1=O (centres undefined)	190 to 192
ClCc1coc(-c2cccc(Cl)c2)n1	76 to 78
Cc1nc(S)oc1C	132 to 134
CCc1ccc(-c2noc(S)n2)cc1	159 to 161
c1ccc(OCCc2nc3ccccc3[nH]2)cc1	136 to 138
Nc1ncc([N+](=O)[O-])cc1C(=O)O	239 to 241
OCc1cc(C23CC4CC(CC(C4)C2)C3)n[nH]1	159 to 161
Nc1c(-c2ccc(F)cc2)nc2sccn12	137 to 139
CNC(=S)NNC(=O)c1ccccc1	181 to 183
CC(C)c1ncc(C(=O)O)s1	133 to 135
Cc1cc([N+](=O)[O-])ccc1S(N)(=O)=O	155 to 157
Cn1cc(C#N)c(=O)[nH]c1=O	239 to 241
NC(=NOC(=O)CCCCl)c1cccs1	144 to 146
CCCc1ccc2c(c1)C(=O)C(=O)N2	104 to 106
COc1cc(NS(=O)(=O)c2ccc(N)cc2)cc(OC)c1	153 to 155
Brc1cnc2nc3ccccc3n2c1	269 to 271
COc1ccc(CNC(=O)n2ccnc2)cc1OC	136 to 138
Cc1cc2ncc(S(C)(=O)=O)c(N)n2n1	208 to 210
COC(=O)c1occc1CBr	50 to 52
N#Cc1cc(CO)ccn1	109 to 111
